Source: US20040023803A1, “Method for producing a solid herbicide formulation” (priority 2000, published 2004)

Assay: Storage stability test of solid formulations (14 days at 54° C., CIPAC MT 46; active ingredient and AMTT content by quantitative HPLC)
Format: physicochemical
Conditions: for Preparation Concentration % by weight: zero value before storage; for Storage 14 days, 54° C. active ingredient content (rel.): relative to zero value
Experimental: The solid formulations prepared by the process according to the invention are storage-stable. In accordance with a storage test laid down by the authorization authorities, they are stored for 14 days at 54° C. […] The active ingredient content and the AMTT content of the formulations were each determined by means of quantitative HPLC. […] The samples were then analyzed and compared with the comparative value at the beginning of the storage (zero value). The active ingredient content is shown in each case as relative quantity based on the zero value (as a percentage). The storage experiments were carried out following the method CIPAC MT 46. The shelf life of a product is estimated by short-term storage at elevated temperature.

[1] = Table 2, Example 1 formulation, pH of the suspension 5.1
[2] = Table 2, Example 1 formulation, pH of the suspension 6
[3] = Table 2, Example 1 formulation, pH of the suspension 7
[4] = Table 2, Example 1 formulation, pH of the suspension 8
[5] = Table 2, Example 1 formulation, pH of the suspension 9
[6] = Table 3 (headed Example 3), tritosulfuron + flucarbazone-sodium formulation, pH of the suspension 6.5
[7] = Table 3 (headed Example 3), tritosulfuron + flucarbazone-sodium formulation, pH of the suspension 7.0
[8] = Table 4 (headed Example 4), tritosulfuron + dicamba formulation, pH of the suspension 6
[9] = Table 4 (headed Example 4), tritosulfuron + dicamba formulation, pH of the suspension 7
[10] = Table 4 (headed Example 4), tritosulfuron + dicamba formulation, pH of the suspension 8
[11] = Table 4 (headed Example 4), tritosulfuron + dicamba formulation, pH of the suspension 9

Compound	Preparation Concentration % by weight [1] [% by weight]	Preparation Concentration % by weight [2] [% by weight]	Preparation Concentration % by weight [3] [% by weight]	Preparation Concentration % by weight [4] [% by weight]	Preparation Concentration % by weight [5] [% by weight]	Preparation Concentration % by weight [6] [% by weight]	Preparation Concentration % by weight [7] [% by weight]	Preparation Concentration % by weight [8] [% by weight]	Preparation Concentration % by weight [9] [% by weight]	Preparation Concentration % by weight [10] [% by weight]	Preparation Concentration % by weight [11] [% by weight]	Storage 14 days, 54° C. active ingredient content (rel.) [8]	Storage 14 days, 54° C. active ingredient content (rel.) [9]	Storage 14 days, 54° C. active ingredient content (rel.) [10]	Storage 14 days, 54° C. active ingredient content (rel.) [11]	Storage 14 days, 54° C. active ingredient content (rel.) [6]	Storage 14 days, 54° C. active ingredient content (rel.) [7]	further results
COc1nc(N)nc(C(F)(F)F)n1 [AMTT, 2-amino-4-methoxy-6-trifluoromethyltriazine]	0.03	0.03	0.033	0.026	0.035	0.025	0.019	0.009	0.007	0.007	0.006							Storage 14 days, 54° C. % by weight (AMTT content) [1]: 0.249 % by weight; Storage 14 days, 54° C. % by weight (AMTT content) [2]: 0.250 % by weight; Storage 14 days, 54° C. % by weight (AMTT content) [3]: 0.178 % by weight; Storage 14 days, 54° C. % by weight (AMTT content) [4]: 0.056 % by weight; Storage 14 days, 54° C. % by weight (AMTT content) [5]: 0.234 % by weight; Storage 14 days, 54° C. % by weight (AMTT content) [6]: 0.164 % by weight; Storage 14 days, 54° C. % by weight (AMTT content) [7]: 0.065 % by weight; Storage 14 days, 54° C. % by weight (AMTT content) [8]: 0.470 % by weight; Storage 14 days, 54° C. % by weight (AMTT content) [9]: 0.011 % by weight; Storage 14 days, 54° C. % by weight (AMTT content) [10]: 0.007 % by weight; Storage 14 days, 54° C. % by weight (AMTT content) [11]: 0.007 % by weight
COc1c(Cl)ccc(Cl)c1C(=O)O [dicamba]								60.4	58.7	58.5	58.0	100 (rel.) % (rel.)	100 (rel.) % (rel.)	100 (rel.) % (rel.)	101.9 (rel.) % (rel.)			
COc1nn(C(=O)[N-]S(=O)(=O)c2ccccc2OC(F)(F)F)c(=O)n1C.[Na+] [flucarbazone-sodium]						24.1	24.3									98.8 (rel.) % (rel.)	99.5 (rel.) % (rel.)	
COc1nc(NC(=O)NS(=O)(=O)c2ccccc2C(F)(F)F)nc(C(F)(F)F)n1 [tritosulfuron, N[[[4-methoxy-6-(trifluoromethyl)-1,3,5-triazin-2-yl]amino]carbonyl]-2-(trifluoromethyl)benzenesulfonamide]	74.2	72.3	71.7	67.5	72.4	40.5	41.1	11.9	11.9	11.3	10.4	91.3 (rel.) % (rel.)	99.7 (rel.) % (rel.)	98.8 (rel.) % (rel.)	102.6 (rel.) % (rel.)	98.8 (rel.) % (rel.)	100 (rel.) % (rel.)	Storage 14 days, 54° C. active ingredient content (rel.) [1]: 99.3 (rel.) % (rel.); Storage 14 days, 54° C. active ingredient content (rel.) [2]: 99.9 (rel.) % (rel.); Storage 14 days, 54° C. active ingredient content (rel.) [3]: 100.8 (rel.) % (rel.); Storage 14 days, 54° C. active ingredient content (rel.) [4]: 100.5 (rel.) % (rel.); Storage 14 days, 54° C. active ingredient content (rel.) [5]: 97.7 (rel.) % (rel.)
